Laboratory results as given in PubChem BioAssay (NCI).
Values joined by “and” are separate entries in the source; they are usually repeats but may differ in a detail not shown here. Equal entries are not always repeated.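 Step 1: Grow cells in 96-well plates. Step 2: Expose to compound for 48 hours at 5 concentrations. Step 3: Interpolate endpoints linearly; if unreached, use highest concentration. TGI: concentration producing complete growth inhibition.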 Where a SMILES comes first, the peptide text is derived from it. The star is where a group is joined. Cbz = O=C(OCc1ccccc1)*

Tests used:
Test in all cases: inhibition of tumour cell growth, NCI panel, 48 h
SK-MEL-2 melanoma = test system: SK-MEL-2 melanoma
KM12 colon = test system: KM12 colon
LOX IMVI melanoma = test system: LOX IMVI melanoma
HS 578T breast = test system: HS 578T breast
CCRF-CEM leukemia = test system: CCRF-CEM leukemia
TK-10 renal = test system: TK-10 renal
COLO 205 colon = test system: COLO 205 colon
NCI-H460 lung = test system: NCI-H460 lung
A549 NSCLC = test system: A549 NSCLC
SF-295 CNS = test system: SF-295 CNS
T-47D breast = test system: T-47D breast

Compound | TGI (SK-MEL-2 melanoma) | TGI (KM12 colon) | TGI (LOX IMVI melanoma) | TGI (HS 578T breast) | TGI (CCRF-CEM leukemia) | TGI (TK-10 renal) | TGI (COLO 205 colon) | TGI (NCI-H460 lung) | TGI (A549 NSCLC) | TGI (SF-295 CNS) | TGI (T-47D breast)
CCCc1c2c3ccccc3nc-2nc2ccccn12 | > 100 µM | > 100 µM | > 100 µM | > 100 µM | > 100 µM | > 100 µM | > 100 µM | > 100 µM | > 100 µM | > 100 µM | > 100 µM
S=C(Nc1ccc(Br)cn1)NC12CC3CC(CC(C3)C1)C2 | 51.7 µM | > 100 µM |  |  | 70.3 µM |  | > 100 µM | > 100 µM | 53.5 µM | 49.5 µM | > 100 µM
N#Cc1c(-c2ccc(Cl)cc2)c(C#N)c(=O)n(NS(=O)(=O)c2ccccc2)c1-c1ccccc1 | > 25 µM |  | > 25 µM |  | > 25 µM | > 25 µM | > 25 µM | > 25 µM | > 25 µM | > 25 µM | 
NNC(=O)c1n[nH]nc1SSc1n[nH]nc1C(=O)NN | > 100 µM | > 100 µM | > 100 µM | > 100 µM | > 100 µM | > 100 µM | > 100 µM | > 100 µM | > 100 µM | > 100 µM | 
Cc1cc2c(-c3ccccc3)cc(=O)[nH]c2cc1N | > 100 µM | > 100 µM | > 100 µM |  | > 100 µM |  | > 100 µM | > 100 µM | > 100 µM | > 100 µM | > 100 µM
O=[N+]([O-])C1(C2([N+](=O)[O-])CCCC2)CCCC1 | > 100 µM | > 100 µM | > 100 µM | > 100 µM | > 100 µM | > 100 µM | > 100 µM | > 100 µM | > 100 µM |  | > 100 µM
C#CCOC(=O)c1ccccc1OC(C)=O | > 100 µM | > 100 µM | > 100 µM | > 100 µM | > 100 µM | > 100 µM | > 100 µM | > 100 µM |  | > 100 µM | > 100 µM
C[C@@H]1C(O)CC[C@H](C)C12CC=CC2=O (some centres not stated) | > 100 µM |  | > 100 µM | > 100 µM |  | > 100 µM | > 100 µM | > 100 µM | > 100 µM | > 100 µM | > 100 µM
CCC1(C)N=C(C(N)=O)c2ncn(N=C(C)C)c2N1 (configuration not stated) |  | > 100 µM | > 100 µM | > 100 µM | > 100 µM | > 100 µM | > 100 µM | > 100 µM | > 100 µM | > 100 µM | > 100 µM
CC12ON=C(c3ccccc3)N1C=CN1C(c3ccccc3)=NOC12 (configuration not stated) |  | > 100 µM | > 100 µM | > 100 µM |  | > 100 µM | > 100 µM | > 100 µM | > 100 µM | > 100 µM | 
CSc1c(C#N)c2n(c3ccccc3[n+]2C)c2ncccc12 | 39.7 µM | > 100 µM | 34.1 µM | > 100 µM | > 100 µM |  | 54.2 µM | > 100 µM | 77 µM | > 100 µM | 80 µM
Cc1ccc2[nH]c3c(C)c4ccncc4c(C)c3c2c1 | 2.63 µM | 2.12 µM | 4.77 µM |  | 3.74 µM | 14.2 µM | 2.23 µM | 1.77 µM | 2.63 µM | 2.32 µM | 
S=C1C=C(c2ccccc2)Sc2ccccc2N1 |  | > 100 µM | > 100 µM | > 100 µM | > 100 µM | > 100 µM | > 100 µM | > 100 µM | > 100 µM | > 100 µM | > 100 µM
CC(=O)c1cccc(NC2C(N)C(NC(=O)N(C)C)(C(C)O)C(C)(O)C2(O)COC(=O)c2c(C)cccc2O)c1 (configuration not stated) | 0.0186 µM | 0.213 µM and 0.164 µM |  | 0.0122 µM | 0.205 µM | 0.118 µM |  |  | 0.347 µM | 0.164 µM and 0.231 µM | 0.00834 µM
COCN1C(=O)[C@@H]2CCCN2C(=O)c2cc([N+](=O)[O-])ccc21 | > 100 µM | > 100 µM | > 100 µM | > 100 µM |  | > 100 µM | > 100 µM |  | > 100 µM | > 100 µM | > 100 µM
CC(C)(C)/C(O)=C\c1nc2cc(C(F)(F)F)ccc2[nH]c1=O | > 100 µM | > 100 µM | > 100 µM | > 100 µM | 81.2 µM | > 100 µM | > 100 µM |  | > 100 µM | > 100 µM | > 100 µM
CC(=O)c1cn(-c2ccc(Cl)cc2)c(=O)c2c(N)n[nH]c12 | > 100 µM | > 100 µM | > 100 µM | > 100 µM | > 100 µM | > 100 µM | > 100 µM | > 100 µM |  | > 100 µM | > 100 µM
CSCCCCCCCCCCOc1ccc(C=C2C(=C(C#N)C#N)c3ccccc3C2=C(C#N)C#N)cc1 | 36.7 µM | 36.8 µM | 61.7 µM | 44.6 µM | 12.2 µM | 36.1 µM |  | 32.2 µM |  | 34 µM | 51.4 µM
CCOC(=O)C(C)NC(=O)C(C)NC(=O)C(C)NC(=O)C(C)NC(=O)C(C)NC(=O)C(C)NC(=O)C(C)NC(=O)OCc1ccccc1 (configuration not stated) (Cbz-AAAAAAA-OEt; configuration not given here) |  | > 100 µM | > 100 µM | > 100 µM |  | > 100 µM | > 100 µM | > 100 µM | > 100 µM | > 100 µM | > 100 µM
CCCCCCCCCN1CCC(=O)C(C(=O)OC)C1 (configuration not stated) |  | 13.1 µM | 26.1 µM | 36.6 µM | 31.2 µM | 31.4 µM | 30.8 µM | 32.9 µM | 30.7 µM | 31.9 µM | 28.3 µM
COc1cc2c(c(OC)c1OC)C(=O)CC2N (configuration not stated) | > 100 µM | > 100 µM | > 100 µM | > 100 µM | > 100 µM | > 100 µM | > 100 µM | > 100 µM | > 100 µM | > 100 µM | 
